The record followed here is US11530244B2, “Cyclic polypeptides for PCSK9 inhibition” (priority 2018, dated 2022).

Like-named read-outs stand apart in the source and are kept apart here. Starred links: 1 amine or outer side, 2 acyl side, 3 side chain; linkers in the order of their positions; H or OH if unused. Positions of bridges follow the written chain, without caps; N, C: chain ends. Non-standard residues stand in square brackets, D forms with d. Residues, ends and D or L forms follow the SMILES beside them. *: point of attachment. NHCH2C6H4(p)CH2CH2NH = c1cc(CN[*:1])ccc1CCN[*:2]; Trp(5-F) = N[C@@H](Cc1c[nH]c2ccc(F)cc12)C(=O)O; Acetyl(2-(4-imidazolyl)) = O=C(Cc1c[nH]cn1)*; dPro(cis-4-NH2) = N[C@H]1CN[C@@H](C(=O)O)C1; X3 = O=C(CCSCc1cc(F)cc(CSCCN[*:1])c1)[*:2]; Pro(cis-4-F) = O=C(O)[C@@H]1C[C@H](F)CN1; X4 = O=C(CCSCc1cccc(CSCCN[*:1])c1)[*:2]; mXylylene = c1cc(C[*:1])cc(C[*:2])c1; AEF = NCCOc1ccc(C[C@H](N)C(=O)O)cc1; Adipoyl = O=C(CCCCC(=O)[*:2])[*:1]; cisHyp = O=C(O)[C@@H]1C[C@H](O)CN1; Hyp = O=C(O)[C@@H]1C[C@@H](O)CN1; Aad = N[C@@H](CCCC(=O)O)C(=O)O; aThr = C[C@H](O)[C@H](N)C(=O)O; Suc = O=C(CCC(=O)[*:2])[*:1]; X63 = c1ncc(C[*:2])nc1C[*:1]; αMeP = C[C@@]1(C(=O)O)CCCN1; 3Amb = NCc1cccc(C(=O)O)c1; Isovaleryl = CC(C)CC(=O)*; Dap = NC[C@H](N)C(=O)O; X2 = O=C(C[*:2])[*:1]; X62 = O=C(C(F)F)*; Mpa = O=C(O)CCS

The assay deals with PCSK9 (Homo sapiens (Human), UniProt Q8NBP7). Put plainly: PCSK9 Alexa FRET Standard assay (displacement of AlexaFluor647 tagged cyclic peptide Reagent A). Conditions: 0.5 nM PCSK9, 20 nM AF cyclic peptide Reagent A. Type of assay: binding. On the procedure: A solution containing 1 nM biotinylated PCSK9+2.5 nM Lance Streptavidin Europium (Strep-Eu) was made in 50 mM HEPES pH 7.4, 0.15 M NaCl, 5 mM CaCl2), 0.01% BSA, and 0.01% Surfactant P20. A separate solution containing 40 nM of the AlexaFluor tagged cyclic peptide was made in the same buffer system. An Echo was used to transfer 0.750 ul of compound to an assay plate followed by the addition of 15 ul of PCSK9+Stept-Eu and 15 ul of AF peptide. The final assay volume was 30.750 ul containing 0.5 nM PCSK9, 1.25 nM Strep-Eu, and 20 nM AF cyclic peptide. The reaction was incubated at room temperature for at least two hours prior to fluorescence measurements using an Envision Multilabel Reader. IC50 values were determined by fitting data to a sigmoidal dose-response curve using nonlinear regression. Ki was then calculated from the IC50 and the KD of AF cyclic peptide. Counts (B-counts) of the europium-labeled PCSK9 were followed to observe if compounds were […]. A fall off of the B-counts likely indicated a false positive of inhibition. Data from this procedure was reported as “A=‘numerical value’ (nanomolar)”
Sequence of PCSK9 (Q8NBP7 153-692): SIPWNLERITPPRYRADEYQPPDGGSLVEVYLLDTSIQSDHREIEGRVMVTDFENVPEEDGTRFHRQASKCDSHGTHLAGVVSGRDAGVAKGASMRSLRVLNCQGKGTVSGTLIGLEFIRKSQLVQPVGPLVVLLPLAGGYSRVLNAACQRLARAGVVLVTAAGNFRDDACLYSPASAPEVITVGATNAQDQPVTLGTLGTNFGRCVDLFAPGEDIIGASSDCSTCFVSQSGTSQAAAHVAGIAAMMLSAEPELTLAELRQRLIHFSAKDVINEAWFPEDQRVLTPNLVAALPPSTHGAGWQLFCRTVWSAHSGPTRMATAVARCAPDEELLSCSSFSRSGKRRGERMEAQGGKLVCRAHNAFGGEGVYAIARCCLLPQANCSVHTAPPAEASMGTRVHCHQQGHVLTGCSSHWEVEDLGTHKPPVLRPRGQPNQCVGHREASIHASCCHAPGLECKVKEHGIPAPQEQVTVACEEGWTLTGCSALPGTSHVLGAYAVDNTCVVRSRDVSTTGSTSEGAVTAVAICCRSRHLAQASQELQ

The mark [1] stands for this setting: PCSK9 Alexa FRET Standard assay, read-out: IC50.
Setting [2] is: IC50, PCSK9 Alexa FRET Standard assay.

For `COc1ccc(C[C@@H]2NC(=O)[C@@H]([C@H](C)O)NC(=O)[C@H]3C[C@@H](N)CN3C(=O)[C@H](Cc3c[nH]c4ccc(F)cc34)NC(=O)[C@H](Cc3c[nH]c4ccc(F)cc34)NC(=O)[C@@H](C)NC(=O)[C@H](CCCCN)NC(=O)CCSCc3cc(F)cc(c3)CSCCNC(=O)[C@]3(C)CCCN3C2=O)cc1` [Compound 082] (cyclo(K[dA][Trp(5-F)][Trp(5-F)][dPro(cis-4-NH2)][dT]Y(Me)[αMeP][X3])), under setting [1], the half-inhibitory concentration (IC50) was 0.1 to 1 µM. For `COc1ccc(C[C@@H]2NC(=O)[C@@H]([C@H](C)O)NC(=O)[C@H]3C[C@@H](N)CN3C(=O)[C@H](Cc3c[nH]c4ccc(F)cc34)NC(=O)[C@H](Cc3c[nH]c4ccc(F)cc34)NC(=O)[C@@H](C)NC(=O)[C@H](CCCCN)NC(=O)CCSCc3cccc(c3)CSCCNC(=O)[C@]3(C)CCCN3C2=O)cc1` [Compound 083] (cyclo(K[dA][Trp(5-F)][Trp(5-F)][dPro(cis-4-NH2)][dT]Y(Me)[αMeP][X4])), the concentration for half-maximal inhibition (IC50) under setting [1] was 0.1 to 1 µM.

For `COc1ccc(C[C@@H]2NC(=O)[C@@H]([C@H](C)O)NC(=O)[C@@H]3C[C@@H](O)CN3C(=O)[C@H](Cc3c[nH]c4ccc(F)cc34)NC(=O)[C@H](Cc3c[nH]c4ccc(F)cc34)NC(=O)[C@@H](C)NC(=O)[C@H](CCCCN)NC(=O)CCSCc3cccc(c3)CSCCNC(=O)[C@]3(C)CCCN3C2=O)cc1` [Compound 084] (cyclo([Hyp][dT]Y(Me)[αMeP][X4]K[dA][Trp(5-F)][Trp(5-F)])), under setting [1], the half-maximal inhibitory concentration (IC50) lay within 0.1 to 1 µM. The same measure, in the same setting: the value for `COc1ccc(C[C@@H]2NC(=O)[C@@H]([C@H](C)O)NC(=O)[C@@H]3C[C@H](O)CN3C(=O)[C@H](Cc3c[nH]c4ccc(F)cc34)NC(=O)[C@H](Cc3c[nH]c4ccc(F)cc34)NC(=O)[C@@H](C)NC(=O)[C@H](CCCCN)NC(=O)CCSCc3cccc(c3)CSCCNC(=O)[C@]3(C)CCCN3C2=O)cc1` [Compound 085] (cyclo(K[dA][Trp(5-F)][Trp(5-F)][cisHyp][dT]Y(Me)[αMeP][X4])) was 21 to 50 µM; that for `COc1ccc(C[C@@H]2NC(=O)[C@@H]([C@H](C)O)NC(=O)[C@@H]3C[C@H](O)CN3C(=O)[C@H](Cc3c[nH]c4ccc(F)cc34)NC(=O)[C@H](Cc3c[nH]c4ccc(F)cc34)NC(=O)[C@@H](C)NC(=O)[C@H](CCCCN)NC(=O)CCSCc3cc(F)cc(c3)CSCCNC(=O)[C@]3(C)CCCN3C2=O)cc1` [Compound 086] (cyclo(K[dA][Trp(5-F)][Trp(5-F)][cisHyp][dT]Y(Me)[αMeP][X3])) was 21 to 50 µM. Consider `COc1ccc(C[C@@H]2NC(=O)[C@@H]([C@H](C)O)NC(=O)[C@@H]3C[C@@H](O)CN3C(=O)[C@H](Cc3c[nH]c4ccc(F)cc34)NC(=O)[C@H](Cc3c[nH]c4ccc(F)cc34)NC(=O)[C@@H](C)NC(=O)[C@H](CCCCN)NC(=O)CCSCc3cc(F)cc(c3)CSCCNC(=O)[C@]3(C)CCCN3C2=O)cc1` [Compound 087] (cyclo([Hyp][dT]Y(Me)[αMeP][X3]K[dA][Trp(5-F)][Trp(5-F)])), for which the IC50 under setting [1] was 21 to 50 µM. Same read-out and setting: in the case of `C[C@@]12CCCN1C(=O)[C@H](Cc1ccc(O)cc1)NC(=O)c1cccc(c1)CNC(=O)[C@H](Cc1c[nH]c3ccc(F)cc13)NC(=O)[C@H](Cc1c[nH]c3ccc(F)cc13)NC(=O)CNC(=O)[C@H](CCCCN)NC(=O)CCSCc1cccc(c1)CSC[C@@H](C(N)=O)NC2=O` [Compound 088] ([Mpa]KG[Trp(5-F)][Trp(5-F)][3Amb]Y[αMeP]C-NH2; linker 1-9 via mXylylene) it was 0.1 to 1 µM. As to `COc1ccc(C[C@@H]2NC(=O)[C@H]([C@@H](C)O)NC(=O)[C@@H]3CCCN3C(=O)[C@H](Cc3c[nH]c4ccc(F)cc34)NC(=O)[C@H](Cc3c[nH]c4ccc(F)cc34)NC(=O)[C@@H](C)NC(=O)[C@H](CCCCN)NC(=O)CCSCc3cncc(n3)CSC[C@@H](C(N)=O)NC(=O)[C@]3(C)CCCN3C2=O)cc1` [Compound 090] ([Mpa]K[dA][Trp(5-F)][Trp(5-F)]PTY(Me)[αMeP]C-NH2; linker 1-10 via X63), under setting [1], the IC50 was in the range of 1 to 12.1 µM.

Take `COc1ccc(C[C@@H]2NC(=O)[C@H]([C@@H](C)O)NC(=O)[C@@H]3C[C@H](F)CN3C(=O)[C@H](Cc3c[nH]c4ccc(F)cc34)NC(=O)[C@H](Cc3c[nH]c4ccc(F)cc34)NC(=O)[C@@H](C)NC(=O)[C@H](CCCCN)NC(=O)[C@@H](NC(C)=O)CNC(=O)COc3ccc(cc3)C[C@@H](C(N)=O)NC(=O)[C@]3(C)CCCN3C2=O)cc1` [Compound 094] (Ac-[Dap]K[dA][Trp(5-F)][Trp(5-F)][Pro(cis-4-F)]TY(Me)[αMeP]Y-NH2; linker 1-10 via X2): under setting [1], the 50% inhibitory concentration (IC50) is 21 to 50 µM. The same measure, in the same setting: in the case of `COc1ccc(C[C@@H]2NC(=O)[C@H]([C@@H](C)O)NC(=O)[C@@H]3C[C@H](F)CN3C(=O)[C@H](Cc3c[nH]c4ccc(F)cc34)NC(=O)[C@H](Cc3c[nH]c4ccc(F)cc34)NC(=O)[C@@H](C)NC(=O)[C@H](CCCCN)NC(=O)[C@@H](NC(C)=O)CCCC(=O)NCc3ccc(cc3)CCNC(=O)[C@]3(C)CCCN3C2=O)cc1` [Compound 096] (Ac-[Aad]K[dA][Trp(5-F)][Trp(5-F)][Pro(cis-4-F)]TY(Me)[αMeP]; linker 1-C via NHCH2C6H4(p)CH2CH2NH) it was 0.1 to 1 µM; in that of `COc1ccc(C[C@@H]2NC(=O)[C@H]([C@@H](C)O)NC(=O)[C@@H]3C[C@H](F)CN3C(=O)[C@H](Cc3c[nH]c4ccc(F)cc34)NC(=O)[C@H](Cc3c[nH]c4ccc(F)cc34)NC(=O)[C@@H](C)NC(=O)[C@H](CCCCN)NC(=O)CCC(=O)NCCOc3ccc(cc3)C[C@@H](C(N)=O)NC(=O)[C@]3(C)CCCN3C2=O)cc1` [Compound 098] (K[dA][Trp(5-F)][Trp(5-F)][Pro(cis-4-F)]TY(Me)[αMeP][AEF]-NH2; linker N-9 via Suc), 21 to 50 µM. Same read-out and setting: in the case of `COc1ccc(C[C@@H]2NC(=O)[C@H]([C@H](C)O)NC(=O)[C@@H]3C[C@H](F)CN3C(=O)[C@H](Cc3c[nH]c4ccc(F)cc34)NC(=O)[C@H](Cc3c[nH]c4ccc(F)cc34)NC(=O)[C@@H](C)NC(=O)CCCCC(=O)NCCOc3ccc(cc3)C[C@@H](C(N)=O)NC(=O)[C@]3(C)CCCN3C2=O)cc1` [Compound 099] ([dA][Trp(5-F)][Trp(5-F)][Pro(cis-4-F)][aThr]Y(Me)[αMeP][AEF]-NH2; linker N-8 via Adipoyl) it was 21 to 50 µM; in that of `C[C@@]12CCCN1C(=O)[C@H](Cc1ccc(O)cc1)NC(=O)CN1CCCC[C@H](NC(=O)[C@H](Cc3c[nH]c4ccc(F)cc34)NC(=O)[C@H](Cc3c[nH]c4ccc(F)cc34)NC(=O)CNC(=O)[C@H](CCCCN)NC(=O)CCSCc3cccc(c3)CSC[C@@H](C(N)=O)NC2=O)C1=O` [Compound 104], 21 to 50 µM. On to `COc1ccc(C[C@@H]2NC(=O)[C@H]([C@@H](C)O)NC(=O)[C@@H]3C[C@H](F)CN3C(=O)[C@H](Cc3c[nH]c4ccc(F)cc34)NC(=O)[C@H](Cc3c[nH]c4ccc(F)cc34)NC(=O)[C@@H](C)NC(=O)[C@H](CCCCN)NC(=O)[C@@H](NC(=O)Cc3cnc[nH]3)CC(=O)NCCOc3ccc(cc3)C[C@@H](C(N)=O)NC(=O)[C@]3(C)CCCN3C2=O)cc1` [Compound 105] ({Acetyl(2-(4-imidazolyl))}-DK[dA][Trp(5-F)][Trp(5-F)][Pro(cis-4-F)]TY(Me)[αMeP][AEF]-NH2; lactam 1-10), for which, under setting [2], the concentration for half-maximal inhibition (IC50) was in the range of 1 to 12.1 µM. `COc1ccc(C[C@@H]2NC(=O)[C@H]([C@@H](C)O)NC(=O)[C@@H]3C[C@H](F)CN3C(=O)[C@H](Cc3c[nH]c4ccc(F)cc34)NC(=O)[C@H](Cc3c[nH]c4ccc(F)cc34)NC(=O)[C@@H](C)NC(=O)[C@H](CCCCN)NC(=O)[C@@H](NC(=O)Cc3cnc[nH]3)CC(=O)NCCOc3ccc(cc3)C[C@@H](C(N)=O)NC(=O)[C@]3(C)CCCN3C2=O)cc1` [Compound 106] ({Acetyl(2-(4-imidazolyl))}-DK[dA][Trp(5-F)][Trp(5-F)][Pro(cis-4-F)]TY(Me)[αMeP][AEF]-NH2; lactam 1-10) returned an IC50 (PCSK9 Alexa FRET Standard assay) of 1 to 12.1 µM. On to `COc1ccc(C[C@@H]2NC(=O)[C@H]([C@@H](C)O)NC(=O)[C@@H]3C[C@H](F)CN3C(=O)[C@H](Cc3c[nH]c4ccc(F)cc34)NC(=O)[C@H](Cc3c[nH]c4ccc(F)cc34)NC(=O)[C@@H](C)NC(=O)[C@H](CCCCN)NC(=O)[C@@H](NC(=O)CC(C)C)CC(=O)NCCOc3ccc(cc3)C[C@@H](C(N)=O)NC(=O)[C@]3(C)CCCN3C2=O)cc1` [Compound 107] (Isovaleryl-DK[dA][Trp(5-F)][Trp(5-F)][Pro(cis-4-F)]TY(Me)[αMeP][AEF]-NH2; lactam 1-10), for which the IC50 under setting [1] fell in the range of 0.1 to 1 µM. On the same count and under the same terms, the value for `C[C@@]12CCCN1C(=O)[C@H](Cc1ccc(O)cc1)NC(=O)CN1C(=O)[C@H](CCc3ccccc31)NC(=O)[C@H](Cc1c[nH]c3ccc(F)cc13)NC(=O)[C@H](Cc1c[nH]c3ccc(F)cc13)NC(=O)CNC(=O)[C@H](CCCCN)NC(=O)CCSCc1cccc(c1)CSC[C@@H](C(N)=O)NC2=O` [Compound 110] was 21 to 50 µM. Regarding `COc1ccc(C[C@@H]2NC(=O)[C@H]([C@@H](C)O)NC(=O)[C@@H]3C[C@H](F)CN3C(=O)[C@H](Cc3c[nH]c4ccc(F)cc34)NC(=O)[C@H](Cc3c[nH]c4ccc(F)cc34)NC(=O)[C@@H](C)NC(=O)[C@H](CCCCN)NC(=O)[C@@H](NC(=O)C(F)F)CC(=O)NCCOc3ccc(cc3)C[C@@H](C(N)=O)NC(=O)[C@]3(C)CCCN3C2=O)cc1` [Compound 113] (X62-DK[dA][Trp(5-F)][Trp(5-F)][Pro(cis-4-F)]TY(Me)[αMeP][AEF]-NH2; lactam 1-10), the IC50 under setting [2] fell in the range of 21 to 50 µM.
